In ChEMBL document CHEMBL5523705, “High affinity and low PARP-trapping benzimidazole derivatives as a potential warhead for PARP1 degraders” (Eur J Med Chem, 2024):

What was measured:
[1] = Inhibition of cell proliferation in HUVECs; type: toxicity, cell-based; settings: human, HUVEC cells
[2] = test system: MCF7; test: Inhibition of cell proliferation in human MCF7 cells; type: functional, cell-based
[3] = molecular target: Poly [ADP-ribose] polymerase 1 (Homo sapiens, UniProt P09874); test: Inhibition of PARP1 (unknown origin) in presence of DNA and substrate by chemiluminescent assay
[4] = test system: MDA-MB-436; test: Inhibition of cell proliferation in human MDA-MB-436 cells assessed as PARP trapping effect; type: functional, cell-based

Sequence of Poly [ADP-ribose] polymerase 1 (P09874 whole entry): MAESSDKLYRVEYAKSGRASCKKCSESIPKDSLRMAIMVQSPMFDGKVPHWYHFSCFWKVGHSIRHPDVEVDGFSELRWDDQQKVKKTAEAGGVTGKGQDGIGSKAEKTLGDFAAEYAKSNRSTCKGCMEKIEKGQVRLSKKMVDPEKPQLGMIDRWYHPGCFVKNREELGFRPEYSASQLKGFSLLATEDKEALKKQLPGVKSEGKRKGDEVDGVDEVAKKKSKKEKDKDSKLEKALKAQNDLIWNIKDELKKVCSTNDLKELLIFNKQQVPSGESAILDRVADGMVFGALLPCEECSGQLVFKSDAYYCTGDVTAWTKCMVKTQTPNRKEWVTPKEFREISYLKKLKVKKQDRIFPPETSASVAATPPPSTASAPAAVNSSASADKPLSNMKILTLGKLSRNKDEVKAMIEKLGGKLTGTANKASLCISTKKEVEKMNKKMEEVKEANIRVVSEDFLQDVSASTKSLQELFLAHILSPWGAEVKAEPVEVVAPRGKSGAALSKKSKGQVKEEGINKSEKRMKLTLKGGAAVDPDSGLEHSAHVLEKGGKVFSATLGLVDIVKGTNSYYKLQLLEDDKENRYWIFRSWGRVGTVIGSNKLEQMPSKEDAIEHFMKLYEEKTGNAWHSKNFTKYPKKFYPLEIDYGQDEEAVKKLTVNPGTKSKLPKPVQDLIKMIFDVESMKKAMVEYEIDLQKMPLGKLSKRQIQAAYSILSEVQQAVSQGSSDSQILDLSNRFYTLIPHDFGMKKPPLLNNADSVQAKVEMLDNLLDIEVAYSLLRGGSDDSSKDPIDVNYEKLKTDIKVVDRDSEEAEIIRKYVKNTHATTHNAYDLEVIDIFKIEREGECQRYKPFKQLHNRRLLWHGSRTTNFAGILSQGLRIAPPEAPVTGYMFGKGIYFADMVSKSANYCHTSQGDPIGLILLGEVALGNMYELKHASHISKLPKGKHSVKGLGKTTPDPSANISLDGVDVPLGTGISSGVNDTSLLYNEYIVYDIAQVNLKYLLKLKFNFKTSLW

| Compound | IC50 [1] [µM] | IC50 ([2]; Homo sapiens, MCF7) [µM] | IC50 [3] [µM] | IC50 ([4]; Homo sapiens, MDA-MB-436) [µM] | IC50 ([2]; mcf7) [µM] | IC50 ([4]; mda-mb-436) [µM] |
| --- | --- | --- | --- | --- | --- | --- |
| NC(=O)c1cccc2[nH]c(-c3ccc(C(=O)N4CCN(C(=O)c5ccco5)CC4)cc3)nc12 | > 100 | > 100 | 0.0541 | > 100 |  |  |
| NC(=O)c1cccc2[nH]c(-c3ccc(C(=O)N4CCN(C(=O)c5csc(Br)n5)CC4)cc3)nc12 | > 100 | > 100 | 0.00462 | > 100 |  |  |
| NC(=O)c1cccc2[nH]c(-c3ccc(C(=O)NC4CCN(c5ccc(Br)o5)C4)c(F)c3)nc12 (stereo unspecified) | > 100 | > 100 |  | 16.4 |  |  |
| Cn1cncc1C(=O)N1CCN(C(=O)c2ccc(-c3nc4c(C(N)=O)cccc4[nH]3)cc2)CC1 | > 100 | > 100 | 0.0846 | > 100 |  |  |
| CC1CN(C(=O)c2ccc(-c3nc4c(C(N)=O)cccc4[nH]3)cc2F)CCN1C(=O)c1ccc(Cl)o1 (stereo unspecified) | 47.8 | > 100 | 0.00685 | 21.8 |  |  |
| Cn1cccc1C(=O)N1CCN(C(=O)c2ccc(-c3nc4c(C(N)=O)cccc4[nH]3)cc2)CC1 | > 100 | > 100 | 0.0456 | > 100 |  |  |
| NC(=O)c1cccc2[nH]c(-c3ccc(C(=O)NC4CCN(c5ccco5)C4)c(F)c3)nc12 (stereo unspecified) | 67.1 | > 100 | 0.009 | 20.5 |  |  |
| CC1CN(C(=O)c2ccc(-c3nc4c(C(N)=O)cccc4[nH]3)cc2F)CCN1C(=O)c1ccc(Br)o1 (stereo unspecified) | 52.6 | > 100 |  | 14.9 |  |  |
| Cc1ccoc1C(=O)N1CCN(C(=O)c2ccc(-c3nc4c(C(N)=O)cccc4[nH]3)cc2F)CC1C (stereo unspecified) | 85.3 | > 100 | 0.00518 | 9.09 |  |  |
| Cc1ccc(C(=O)N2CCN(C(=O)c3ccc(-c4nc5c(C(N)=O)cccc5[nH]4)cc3F)CC2C)o1 (stereo unspecified) | > 100 | > 100 | 0.00572 | 17.3 |  |  |
| NC(=O)c1cccc2[nH]c(-c3ccc(C(=O)N4CCN(C(=O)c5ccccn5)CC4)cc3)nc12 | > 100 | > 100 | 0.0506 | > 100 |  |  |
| NC(=O)c1cccc2[nH]c(-c3ccc(C(=O)NC4CCN(c5ccc(Cl)o5)C4)c(F)c3)nc12 (stereo unspecified) | > 100 | > 100 | 0.00438 | 7.6 |  |  |
| NC(=O)c1cccc2[nH]c(-c3ccc(C(=O)N4CCN(C(=O)c5ccco5)CC4)c(F)c3)nc12 | > 100 | > 100 | 0.0324 | > 100 |  |  |
| O=C(c1cc(Cc2n[nH]c(=O)c3ccccc23)ccc1F)N1CCN(C(=O)C2CC2)CC1 [OLAPARIB] | > 100 | > 100 |  | 23.9 |  |  |
| C[C@]1(c2nc3c(C(N)=O)cccc3[nH]2)CCCN1 [VELIPARIB] | > 100 |  |  |  | > 100 | > 100 |
